According to US20170239253A1, “COMPOSITIONS AND METHODS FOR THE REDUCTION OR PREVENTION OF NON-ALCOHOLIC STEATOHEPATITIS (NASH)” (NuSirt Sciences, Inc., priority 2015, published 2017):

Tests used:
[1] = 25 mg icariin/kg diet; corresponding to 4 mg/kg body weight/day; cited from earlier work
[2] = system: C57Bl/6 mice on high fat diet (HFD); experiment: Histological analysis of hepatic lipid accumulation (hepatic steatosis), high fat diet model
Text: (§1) Chronic high fat diet was used in C57Bl/6 mice as an experimental model of hepatic steatosis. Male C57/BL6 mice were either maintained on standard low-fat diet (control; LFD; 10% energy from fat) or placed on a high fat (HFD; 60% energy from fat, Research Diets #D12492, Research Diets, Inc., New Brunswick, N.J.) at six weeks of age to induce obesity and fatty infiltration of the liver. […] Animals fed with LFD have normal cellular structure in liver cells. […] Animals were then randomized to treatments for an additional six weeks, with 10 animals per group, as specified in the following examples.
(§2) The 1.5 g/kg diet of metformin corresponds to a therapeutically effective dose of metformin in humans.
(§3) Following induction of hepatic steatosis as described in Example 1, animals were treated for six weeks according to the following treatment groups as depicted in Table 22:
(§4) In this study, the effects of metformin alone (therapeutic dose) vs. combination therapy with sub-therapeutic amounts of metformin and HMB on liver weight and hepatic lipid accumulation were assessed. Following induction of hepatic steatosis as described in Example 1, animals were treated for six weeks according to the following treatment groups as depicted in Table 23:

[3] = system: C57Bl/6 mice on high fat diet (HFD); details: Example 3; metformin alone 1.5 g/kg diet; leucine 24 g/kg + metformin 0.5 g/kg
Text: Chronic high fat diet was used in C57Bl/6 mice as an experimental model of hepatic steatosis. Male C57/BL6 mice were either maintained on standard low-fat diet (control; LFD; 10% energy from fat) or placed on a high fat (HFD; 60% energy from fat, Research Diets #D12492, Research Diets, Inc., New Brunswick, N.J.) at six weeks of age to induce obesity and fatty infiltration of the liver. […] Animals were then randomized to treatments for an additional six weeks, with 10 animals per group, as specified in the following examples.
In this study, the effects of metformin alone (therapeutic dose) vs. combination therapy with sub-therapeutic amounts of metformin and leucine on liver weight and hepatic lipid accumulation were assessed.

[4] = system: C57Bl/6 mice on high fat diet (HFD); experiment: Prophylactic treatment concurrent with high fat diet: liver mass and hepatic lipid accumulation; type: in vivo; details: six weeks, metformin alone 1.5 g/kg
Protocol: In this study, the prophylactic effects of metformin alone, and various combinations of metformin, leucine, and resveratrol on liver mass and hepatic steatosis are assessed. C57Bl/6 mice are assigned to the following experimental groups as depicted in Table 25: Drug treatments and high fat diet feeding (as described in Example 1) are initiated on the same day and are carried out for six weeks. The effects of the treatments and diet on liver mass and hepatic lipid accumulation are assessed as described in the preceding examples. […] In this study, the prophylactic effects of metformin alone, and various combinations of metformin, HMB, and resveratrol on liver mass and hepatic steatosis are assessed. C57Bl/6 mice are assigned to the following experimental groups as depicted in Table 26: Drug treatments and high fat diet feeding (as described in Example 1) are initiated on the same day and are carried out for six weeks. The effects of the treatments and diet on liver mass and hepatic lipid accumulation are assessed as described in the preceding examples. […] In this study, the prophylactic effects of sub-therapeutic leucine alone, and co-administration of leucine and the PDE5-specific inhibitor icariin on liver mass and hepatic steatosis are assessed. […] The effects of the treatments and diet on liver mass and hepatic lipid accumulation are assessed as described in the preceding examples.

[5] = system: C57Bl/6 mice on high fat diet (HFD); experiment: Liver weight after six weeks treatment in chronic high fat diet model of hepatic steatosis; type: in vivo
Text: as §1, §2, §3, §4

Row | Compound | effect on liver mass or hepatic lipid accumulation [1] | hepatic steatosis (histology) ([2]; Example 2, HFD mice, six weeks, metformin alone at therapeutic dosage, combinations at sub-therapeutic dosages) | hepatic steatosis (histology) ([2]; Example 3, metformin alone therapeutic, leucine + metformin 0.5 g/kg) | effect on liver triglycerides [3] | HFD-induced increase in liver mass and hepatic lipid accumulation (prophylactic) ([4]; Example 6, treatment and HFD started same day, leucine 24 g/kg + metformin 0.15-0.50 g/kg ± resveratrol 12.5 mg/kg diet) | HFD-induced increase in liver mass and hepatic lipid accumulation (prophylactic) ([4]; Example 7, CaHMB 2 g/kg + metformin 0.15-0.50 g/kg ± resveratrol 12.5 mg/kg diet) | effect on liver weight ([5]; Example 2, metformin alone 1.5 g/kg diet, leucine 24 g/kg diet, resveratrol 12.5 mg/kg diet) | effect on liver weight ([5]; Example 3, metformin alone 1.5 g/kg diet, leucine 24 g/kg + metformin 0.25 and 0.5 g/kg, p<0.02 vs. HFD) | effect on liver weight ([5]; Example 4, metformin alone 1.5 g/kg diet, CaHMB 2 g/kg diet + metformin 0.25 and 0.5 g/kg, p<0.03)
1 | COc1ccc(-c2oc3c(CC=C(C)C)c(O[C@@H]4O[C@H](CO)[C@@H](O)[C@H](O)[C@H]4O)cc(O)c3c(=O)c2O[C@@H]2O[C@@H](C)[C@H](O)[C@@H](O)[C@H]2O)cc1 [icariin] | no effect |  |  |  |  |  |  |  | 
2 | metformin |  | partial reversal of the effects of HFD on hepatic steatosis | partially reversed hepatic steatosis | partially reversed the effect of high fat diet on liver triglycerides | attenuates the HFD-induced increase in liver mass and hepatic lipid accumulation | attenuates the HFD-induced increase in liver mass and hepatic lipid accumulation | partially reverse the effect of high fat diet on liver weight | reversed the effect of high fat diet on liver weight back to control levels | reversed the effect of high fat diet on liver weight back to control levels
